{"source": "ChEMBL document CHEMBL1821550", "about": "(Bioorg Med Chem Lett, 2011)"}
{"assay": "physchem", "settings": "octanol/water"}
{"smiles": "Fc1cc(-c2cnc3nc(N4CCC(N5CCCCC5)CC4)sc3c2)ccn1", "logD": 1.5}
{"smiles": "Cc1c(-c2ccc3cc(CCN4CCC[C@H]4C)ccc3n2)sc2nc3ccccc3n12", "logD": 4.5}
{"smiles": "CC(C)N1CCN(C(=O)N2CCC(C(=O)N3CC4CCC(CC4)C3)CC2)CC1", "logD": 0.9}
{"smiles": "Cc1nc(-c2ccncc2)sc1-c1ccc2cc(CCN3CCC[C@H]3C)ccc2n1", "logD": 3.5}
{"smiles": "O=C(C1CC(Oc2ccc(F)cc2)CN1)N1CCCN(C2CCCC2)CC1", "note": "(stereo not drawn)", "logD": 0.9}
{"smiles": "Cc1c(-c2ccc3cc(CCN4CCC[C@H]4C)ccc3n2)cnn1-c1ccccn1", "logD": 3.4}
{"smiles": "Cc1nc2c(C(F)(F)F)cccc2c(=O)n1-c1ccc(OCCCN2CCCC2)cc1", "logD": 2.6}
{"smiles": "CC(C)N1CCN(C(=O)N2CCC(NC(=O)C3CCCC3)CC2)CC1", "logD": 0.2}
{"smiles": "CC(=O)Nc1ccc(-c2cc3sc(N4CCC(N5CCCCC5)CC4)nc3cn2)cn1", "logD": 0.8}
{"smiles": "COc1ccc2c(=O)n(-c3ccc(OCCCN4CCCC4)cc3)c(C)nc2c1", "logD": 1.7}
{"smiles": "C[C@@H]1CCCN1CCc1ccc2nc(-c3cccnc3)ccc2c1", "logD": 2.5}
{"smiles": "Fc1cc(-c2cc3sc(N4CCC(N5CCCCC5)CC4)nc3cn2)ccn1", "logD": 1.7}
{"smiles": "C[C@@H]1CCCN1CCc1ccc(-c2ccc(S(=O)(=O)NCc3ccccc3)cc2)cc1", "logD": 3.6}
{"smiles": "CC(C)N1CCN(C(=O)N2CC=C(c3ccccc3)CC2)CC1", "logD": 1.4}
{"smiles": "Cc1cc2ncc(-c3ccc4cc(CCN5CCC[C@H]5C)ccc4n3)c(C)n2n1", "logD": 2.5}
{"smiles": "CC[C@@H]1Sc2ccccc2O[C@@H]1c1ccc(OCCCN2CCCC2)cc1", "logD": 3.8}
{"smiles": "C[C@@H]1CCCN1CCc1ccc2nc(-c3ccc(C#N)cc3)ccc2c1", "logD": 3.5}
{"smiles": "COc1cccc2c1OC(c1ccc(OCCCN3CCCCC3)cc1)C(C)S2(=O)=O", "note": "(stereo not drawn)", "logD": 2.7}
{"smiles": "Cc1nc2ccccc2c(=O)n1-c1ccc(OCCCN2CCCC2)cc1", "logD": 1.7}
{"smiles": "CCOC(=N)c1ccc(-c2ccc3cc(CCN4CCC[C@H]4C)ccc3n2)s1", "logD": 4.1}
{"smiles": "O=c1c2ccccc2ncn1-c1ccc(OCCCN2CCCC2)cc1", "logD": 1.6}
{"smiles": "Cn1c(-c2ccc(OC3CCN(C4CCC4)CC3)cc2)nc2c(C(F)(F)F)cccc2c1=O", "logD": 3.1}
{"smiles": "C[C@@H]1CCCN1CCc1ccc2nc(-c3cn[nH]c3)ccc2c1", "logD": 2.1}
{"smiles": "COc1cccc2c(=O)n(C)c(-c3ccc(OC4CCN(C5CCC5)CC4)cc3)nc12", "logD": 2.2}
{"smiles": "Cc1nc2ccccn2c1-c1ccc2cc(CCN3CCC[C@H]3C)ccc2n1", "logD": 3.2}
{"smiles": "COc1ncc(-c2ccc3cc(CCN4CCC[C@H]4C)ccc3n2)cn1", "logD": 2.4}
{"smiles": "c1c[nH]c(-c2ccc(OCCCN3CCCCC3)cc2)n1", "logD": 1.6}
{"smiles": "C[C@@H]1CCCN1CCc1ccc(-c2ccc(S(=O)(=O)NCC3CC3)cc2)cc1", "logD": 2.8}
{"smiles": "CN(C)C1CCC(c2ccc(OCCCN3CCCCC3)cc2)CC1", "note": "(stereo not drawn)", "logD": 1.4}
{"smiles": "Cc1cccc2c(=O)n(C)c(-c3ccc(OC4CCN(C5CCC5)CC4)cc3)nc12", "logD": 2.7}
{"smiles": "CC1CCCN1CCc1ccc2nc(-c3cccs3)ccc2c1", "note": "(stereo not drawn)", "logD": 3.6}
{"smiles": "COc1cccc2c1OC(c1ccc(OC3CCN(C4CCC4)CC3)cc1)C(C)S2(=O)=O", "note": "(stereo not drawn)", "logD": 3.3}
{"smiles": "c1cc(C2=NCCO2)ccc1OCCCN1CCCCC1", "logD": 1.3}
{"smiles": "Cc1c(-c2ccc(Cl)cc2)noc1-c1ccc2cc(CCN3CCC[C@H]3C)ccc2n1", "logD": 5.5}
{"smiles": "Clc1cc2sc(N3CCC(N4CCCCC4)CC3)nc2cn1", "logD": 1.2}
{"smiles": "COc1ccc2c(c1)S(=O)(=O)C(C)C(c1ccc(OCCCN3CCCC3)cc1)O2", "note": "(stereo not drawn)", "logD": 2.2}
{"smiles": "C[C@@H]1CCCN1CCc1ccc2ncccc2c1", "logD": 1.7}
{"smiles": "Cc1c(-c2ccc3cc(CCN4CCC[C@H]4C)ccc3n2)cnn1-c1ccc(N(C)C)nn1", "logD": 3}
{"smiles": "Cn1c(-c2ccc(OC3CCN(C4CCC4)CC3)cc2)nc2c(F)cccc2c1=O", "logD": 2.4}
{"smiles": "C[C@@H]1CCCN1CCc1ccc2nc(-c3ccncc3)ccc2c1", "logD": 2.5}
{"smiles": "Cc1nc(C)c(-c2ccc3cc(CCN4CCC[C@H]4C)ccc3n2)o1", "logD": 2.4}
{"smiles": "Cc1nc(-c2cccnc2)sc1-c1ccc2cc(CCN3CCC[C@H]3C)ccc2n1", "logD": 3.5}
{"smiles": "Cn1c(-c2ccc(OCCCN3CCCCC3)cc2)nc2ccccc2c1=O", "logD": 2.2}
{"smiles": "C[C@@H]1CCCN1CCc1ccc2nc(-c3ccn[nH]3)ccc2c1", "logD": 2.4}
{"smiles": "COC(=O)c1cc(-c2ccc3cc(CCN4CCC[C@H]4C)ccc3n2)on1", "logD": 2.7}
{"smiles": "Cc1cc(-c2nc(-c3ccc4cc(CCN5CCC[C@H]5C)ccc4n3)cs2)no1", "logD": 3.5}
{"smiles": "Cn1c(-c2ccc(OC3CCN(C4CCC4)CC3)cc2)nc2ccccc2c1=O", "logD": 2.2}
{"smiles": "Cc1ccc(-c2ccc(-c3ccc4cc(CCN5CCC[C@H]5C)ccc4n3)s2)s1", "logD": 5.5}
{"smiles": "Cc1c(-c2ccc3cc(CCN4CCC[C@H]4C)ccc3n2)cnn1-c1ccc(Cl)c(Cl)c1", "logD": 5.4}
{"smiles": "C[C@@H]1CCCN1CCc1ccc(-c2ccc(S(=O)(=O)Nc3ccccc3)cc2)cc1", "logD": 3.5}
{"smiles": "C[C@@H]1CCCN1CCc1ccc2nc(-c3ccc4c(c3)COCO4)ccc2c1", "logD": 3.2}
{"smiles": "C[C@@H]1CCCN1CCc1ccc2nc(-c3ccccn3)ccc2c1", "logD": 2.9}
{"smiles": "O=c1ccc(-c2cnc3nc(N4CCC(N5CCCCC5)CC4)sc3c2)c[nH]1", "logD": 1.2}
{"smiles": "C[C@@H]1CCCN1CCc1ccc2nc(-c3cn4c(n3)SCC4)ccc2c1", "logD": 3.1}
{"smiles": "Cc1nc2cccc(Cl)c2c(=O)n1-c1ccc(OCCCN2CCCC2)cc1", "logD": 2.4}
{"smiles": "c1csc(-c2ccc(OCCCN3CCCCC3)cc2)c1", "logD": 2.8}
{"smiles": "COc1ccccc1-c1ccc(OCCCN2CCCCC2)cc1", "logD": 2.9}
{"smiles": "C[C@@H]1Sc2ccccc2O[C@@H]1c1ccc(OCCCN2CCCC2)cc1", "logD": 3.3}
{"smiles": "O=c1c2ccccc2nc(-c2ccc(OCCCN3CCCCC3)cc2)n1Cc1ccccc1", "logD": 3.8}
{"smiles": "C[C@H]1[C@H](c2ccc(OCCCN3CCCC3)cc2)Oc2ccccc2S1(=O)=O", "logD": 2.2}
{"smiles": "C[C@@H]1CCCN1CCc1ccc(-c2ccc(S(=O)(=O)NC3CCOCC3)cc2)cc1", "logD": 1.8}
{"smiles": "O=C(N1CCN(C2CCCC2)CC1)N1Cc2ccccc2C1", "logD": 1.1}
{"smiles": "Cc1ccc(-c2ccc3cc(CCN4CCC[C@H]4C)ccc3n2)c(C)n1", "logD": 3.1}
{"smiles": "COc1ccc2nc(C)n(-c3ccc(OCCCN4CCCC4)cc3)c(=O)c2c1", "logD": 1.7}
{"smiles": "COc1cc(-c2cc3sc(N4CCC(N5CCCCC5)CC4)nc3cn2)ccn1", "logD": 1.6}
{"smiles": "COc1ccc2c(=O)n(C)c(-c3ccc(OC4CCN(C5CCC5)CC4)cc3)nc2c1", "logD": 2.2}
{"smiles": "Cc1ccc2c(=O)n(-c3ccc(OCCCN4CCCC4)cc3)c(C)nc2c1", "logD": 2.2}
{"smiles": "O=C(N1CCN(C2CC2)CC1)N1Cc2ccccc2C1", "logD": 0.1}
{"smiles": "Cc1nc(-c2nc(-c3ccc4cc(CCN5CCC[C@H]5C)ccc4n3)cs2)cs1", "logD": 3.6}
{"smiles": "Cc1cccc2nc(C)n(-c3ccc(OCCCN4CCCC4)cc3)c(=O)c12", "logD": 2.2}
{"smiles": "C[C@@H]1CCCN1CCc1ccc2nc(-c3ccc4nccnc4c3)ccc2c1", "logD": 3.1}
{"smiles": "O=C(N1Cc2ccccc2C1)N1CCC[C@H]1CN1CCCC1", "logD": 0.9}
{"smiles": "Cc1n[nH]c(C)c1-c1ccc2cc(CCN3CCC[C@H]3C)ccc2n1", "logD": 2.5}
{"smiles": "c1cc(N2CCCCC2)ccc1OCCCN1CCCCC1", "logD": 1.7}
{"smiles": "COCC1CCCN1S(=O)(=O)c1ccc(-c2ccc(CCN3CCC[C@H]3C)cc2)cc1", "note": "(stereo partly drawn)", "logD": 2.5}
{"smiles": "C1=C(c2ccc(OCCCN3CCCCC3)cc2)CCC1", "logD": 2.9}
{"smiles": "Nc1ccc(-c2cc3sc(N4CCC(N5CCCCC5)CC4)nc3cn2)cn1", "logD": 0.9}
{"smiles": "COC(=O)N1CC(Oc2cccc(F)c2)CC1C(=O)N1CCCN(C2CCC2)CC1", "note": "(stereo not drawn)", "logD": 1.8}
{"smiles": "C[C@@H]1CCCN1CCc1cc2cc(-c3ccc(C#N)cc3)ccc2o1", "logD": 3.2}
{"smiles": "Cc1ccc(-c2cnc3nc(N4CCC(N5CCCCC5)CC4)sc3c2)cn1", "logD": 1.2}
{"smiles": "Cn1c(-c2ccc(OCCCN3CCCC3)cc2)nc2ccccc2c1=O", "logD": 1.8}
{"smiles": "COc1ccc2c(c1)OC(c1ccc(OCCCN3CCCC3)cc1)C(C)S2(=O)=O", "note": "(stereo not drawn)", "logD": 2.2}
{"smiles": "CCCn1c(-c2ccc(OCCCN3CCCCC3)cc2)nc2ccccc2c1=O", "logD": 3.1}
{"smiles": "C[C@@H]1CCCN1CCc1ccc2nc(-c3ccn4ncnc4n3)ccc2c1", "logD": 2.5}
{"smiles": "Cn1c(-c2ccc(OC3CCN(C4CCC4)CC3)cc2)nc2c(Cl)cccc2c1=O", "logD": 2.8}
{"smiles": "CC(C)N1CCN(C(=O)N2CCC(c3ccccc3)CC2)CC1", "logD": 1.6}
{"smiles": "Fc1ncccc1-c1cc2sc(N3CCC(N4CCCCC4)CC3)nc2cn1", "logD": 1.7}
{"smiles": "C[C@@H]1CCCN1CCc1ccc(-c2ccc(S(=O)(=O)N3CCOCC3)cc2)cc1", "logD": 1.9}
{"smiles": "CCc1nc2ccccc2c(=O)n1-c1ccc(OCCCN2CCCC2)cc1", "logD": 2.4}
{"smiles": "C[C@@H]1CCCN1CCc1ccc(-c2ccc(S(N)(=O)=O)cc2)cc1", "logD": 1.8}
{"smiles": "Cc1nn(C)cc1-c1ccc2cc(CCN3CCC[C@H]3C)ccc2n1", "logD": 2.6}
{"smiles": "CN(Cc1ccc(-c2ccccc2)cc1)C(=O)N1CCC[C@H]1CN1CCCC1", "logD": 2.6}
{"smiles": "C[C@H]1Sc2ccccc2O[C@@H]1c1ccc(OCCCN2CCCC2)cc1", "logD": 3.3}
{"smiles": "Cc1nc2ncccc2cc1-c1ccc2cc(CCN3CCC[C@H]3C)ccc2n1", "logD": 3.1}
{"smiles": "c1cc(C2CCCO2)ccc1OCCCN1CCCCC1", "note": "(stereo not drawn)", "logD": 1.7}
{"smiles": "N#Cc1ccc(OC2CNC(C(=O)N3CCCN(C4CCC4)CC3)C2)cc1", "note": "(stereo not drawn)", "logD": -0.2}
{"smiles": "Cc1ccc2nc(C)n(-c3ccc(OCCCN4CCCC4)cc3)c(=O)c2c1", "logD": 2.2}
{"smiles": "CC(C)c1nc2ccccc2c(=O)n1-c1ccc(OCCCN2CCCC2)cc1", "logD": 2.8}
{"smiles": "C[C@@H]1CCCN1CCc1ccc2nc(-c3csc(-c4ccc(OCC(F)(F)F)nc4)n3)ccc2c1", "logD": 4.8}
{"smiles": "CCOC(=O)c1ccc(-c2ccc(OCCCN3CCCCC3)cc2)cc1", "logD": 3.1}
{"smiles": "C[C@@H]1CCCN1CCc1ccc2nc(C3CC3)ccc2c1", "logD": 2.7}
{"smiles": "COc1ccc(-c2cnc3nc(N4CCC(N5CCCCC5)CC4)sc3c2)cn1", "logD": 1.4}
{"smiles": "c1cc(C2CCOCC2)ccc1OCCCN1CCCCC1", "logD": 1.8}
